Patent publication US20260191850A1, “USE OF 8-HYDROXYQUINOLINE DERIVATIVE” (Jiangsu Yahong Meditech Co., Ltd., priority 2022, published 2026)
“And” between values parts separate entries of the source, which are not always exact repeats. Equal entries are not always repeated. Structures can show the parent of a compound that is named as a salt. Where two headings read alike, the source gives them in different places.

How the values were obtained:
[1] = tested on: Human Papillomavirus 11 (HPV11); assay: Transient transfection HPV replication assay (E1/E2 plasmids, NanoLuc reporter), HPV11; type: cell-based; conditions: HPV11 strain HE611260.1, C-33 A cells; for EC50: 48 hours
Method: The antiviral activity of 7-nitro-8-hydroxyquinoline derivatives against human papillomavirus (HPV) was tested and evaluated using transient transfection assays. This evaluation system included plasmids expressing viral helicase E1 and replication origin binding protein E2, plasmids containing NanoLuc gene of which the expression was driven by a TK promoter (Promega company), and replication origin sequences of human papillomavirus strains listed below. […] The positions of replication origin sequences of the three NanoLuc reporter plasmids were 7825-7993:1-99, 7662-7901:1-99, and 7740-7837:1-102 for HPV-11 (NCBI Accession No. HE611260.1), HPV-16 (NCBI Accession No. KP212151.1), and HPV-18 (NCBI Accession No. KC470230.1), respectively. The positions of E1 open reading frame (ORF) sequences corresponding to HPV-11, HPV-16 and HPV-18 were 832-2781, 864-2813 and 914-2887 in the same sequences, respectively. The positions of E2 open reading frame (ORF) sequences corresponding to HPV-11, HPV-16 and HPV-18 were 2723-3826, 2755-3852 and 2817-3908 in the same sequences, respectively. The cells used for transient transfection were C-33A cells (ATCC HTB-31), and the culture medium was DMEM supplemented with Earle's salt, L-glutamine and 2% fetal bovine serum. In the experiment, the NanoLuc expression plasmid (5 ng/well) was co-transfected with the E1 and E2 expression plasmids of the homologous virus by using Lipofectamine LTXL and Plus Reagent (Invitrogen product, Thermo Fisher Scientific company). […] Meanwhile, the transfected cells were also seeded into duplicated dishes containing the same dilution of test drugs to assess cytotoxicity. All transfected monolayer cells were incubated at 37° C. for 48 hours. The NanoLuc activity expressed by the reporter plasmids was detected with Nano-Glo reagent (Promega company), the cell viability in cytotoxicity plates was measured with CellTiter-Glo reagent (Promega company), and the luminescence intensity was quantified on a microplate reader. The meanings of EC50, CC50, and SI50 were the same as those well-known in the art (where SI50=CC50/EC50), and were not described here. […]

in vitro = conditions: human
Method: (§1) The antiviral activity of 7-nitro-8-hydroxyquinoline derivatives against human papillomavirus (HPV) was tested and evaluated using transient transfection assays. This evaluation system included plasmids expressing viral helicase E1 and replication origin binding protein E2, plasmids containing NanoLuc gene of which the expression was driven by a TK promoter (Promega company), and replication origin sequences of human papillomavirus strains listed below. […] The positions of replication origin sequences of the three NanoLuc reporter plasmids were 7825-7993:1-99, 7662-7901:1-99, and 7740-7837:1-102 for HPV-11 (NCBI Accession No. HE611260.1), HPV-16 (NCBI Accession No. KP212151.1), and HPV-18 (NCBI Accession No. KC470230.1), respectively. The positions of E1 open reading frame (ORF) sequences corresponding to HPV-11, HPV-16 and HPV-18 were 832-2781, 864-2813 and 914-2887 in the same sequences, respectively. The positions of E2 open reading frame (ORF) sequences corresponding to HPV-11, HPV-16 and HPV-18 were 2723-3826, 2755-3852 and 2817-3908 in the same sequences, respectively. The cells used for transient transfection were C-33A cells (ATCC HTB-31), and the culture medium was DMEM supplemented with Earle's salt, L-glutamine and 2% fetal bovine serum. In the experiment, the NanoLuc expression plasmid (5 ng/well) was co-transfected with the E1 and E2 expression plasmids of the homologous virus by using Lipofectamine LTXL and Plus Reagent (Invitrogen product, Thermo Fisher Scientific company). […] Meanwhile, the transfected cells were also seeded into duplicated dishes containing the same dilution of test drugs to assess cytotoxicity. All transfected monolayer cells were incubated at 37° C. for 48 hours. The NanoLuc activity expressed by the reporter plasmids was detected with Nano-Glo reagent (Promega company), the cell viability in cytotoxicity plates was measured with CellTiter-Glo reagent (Promega company), and the luminescence intensity was quantified on a microplate reader. The meanings of EC50, CC50, and SI50 were the same as those well-known in the art (where SI50=CC50/EC50), and were not described here.
(§2) J Med Chem. 2016; 59 (23): 10470-8. • Kachaeva, M. et al. In vitro activity of novel 1,3-oxazole derivatives against HPV. Ibnosina J Med Biomed Sci. 2017; 9 (4): 111-8.

[2] = tested on: Human Papillomavirus 18 (HPV18); assay: Transient transfection HPV replication assay (E1/E2 plasmids, NanoLuc reporter), HPV18; type: cell-based; conditions: HPV18 strain KC470230.1, C-33 A cells; for EC50: 48 hours
Method: as §1, §2

[3] = tested on: Human Papillomavirus 16 (HPV16); assay: Transient transfection HPV replication assay (E1/E2 plasmids, NanoLuc reporter), HPV16; type: cell-based
Method: as §1, §2

[4] = tested on: C-33A cells (ATCC HTB-31); assay: in vitro
Method: as §1, §2

[5] = Human papillomavirus 16, C-33-A, 48 h
[6] = C-33 A cells transfected with HPV11 (HE611260.1) plasmids, 48 hours
[7] = C-33 A cells transfected with HPV16 (KP212151.1) plasmids, 48 hours
[8] = C-33 A cells transfected with HPV18 (KC470230.1) plasmids, 48 hours

With `O=[N+]([O-])c1ccc2c(C(F)(F)F)ccnc2c1O` [Compound 62, 7-nitro-4-trifluoromethylquinolin-8-ol] the EC50 ([1]; human papillomavirus 11) was greater than 1.2 µM and the CC50 at 48 h (in vitro; CC50) was 5.5 µM.
For `O=[N+]([O-])c1ccc2c(Cl)c(C3CC3)cnc2c1O` [Compound 74, 4-chloro-3-cyclopropyl-7-nitroquinolin-8-ol], the EC50 ([1]; human papillomavirus 11) was 0.57 µM, the CC50 at 48 h (in vitro; CC50) was 34.4 µM and the EC50 ([2]; human papillomavirus 18) was less than 0.05 µM. It also gave an EC50 [3, 5] of 0.15 µM.
Molecule `O=[N+]([O-])c1c(Cl)c(F)c2cccnc2c1O` [Compound 123, 6-chloro-5-fluoro-7-nitroquinolin-8-ol] has an EC50 ([1]; human papillomavirus 11) greater than 6 µM and a CC50 at 48 h (in vitro; CC50) of 29.8 µM.
In the case of `O=[N+]([O-])c1ccc2c(C3CCCCC3)ccnc2c1O` [Example 32, 4-cyclohexyl-7-nitroquinolin-8-ol], the EC50 [1] is reported as 3.99 µM and the CC50 [4] is reported as greater than 150 µM.
In the case of “4-methoxy-7-nitroquinolin-8-ol [Example 21]”, the EC50 [1] is reported as greater than 6 µM and the CC50 [4] is reported as 22.2 µM.
`O=[N+]([O-])c1ccc(O)c2ncccc12` [Compound A2, 5-nitro-8-hydroxyquinoline, reference compound] gave an EC50 ([1]; human papillomavirus 11) of 1.04 µM and an EC50 ([2]; human papillomavirus 18) of 1.01 µM.
`Cc1ccnc2c(O)c(C#N)cc(Cl)c12` [Compound 131, 4-methyl-5-chloro-7-cyano-8-hydroxyquinoline] gave an EC50 ([1]; human papillomavirus 11) of 0.53 µM, an EC50 ([2]; human papillomavirus 18) of 0.14 µM and an EC50 [3, 5] of 0.55 µM.
Molecule `Cc1cc(C#N)c(O)c2ncccc12` [Compound A1] has an EC50 ([1]; human papillomavirus 11) greater than 6 µM and a CC50 at 48 h (in vitro; CC50) of 20.2 µM.
For `O=[N+]([O-])c1cc(Cl)c2c(N3CCCCC3)ccnc2c1O` [Compound 36, 5-chloro-7-nitro-4-piperidinylquinolin-8-ol], the EC50 ([1]; human papillomavirus 11) was less than 0.05 µM, the EC50 ([2]; human papillomavirus 18) was 0.27 µM and the EC50 [3, 5] was 0.69 µM.
For `N#Cc1c(Cl)c(Cl)c2cccnc2c1O` [Compound 133, 5,6-dichloro-7-cyano-8-hydroxyquinoline], the EC50 ([1]; human papillomavirus 11) was greater than 1.2 µM and the CC50 at 48 h (in vitro; CC50) was 5.59 µM.
For `O=[N+]([O-])c1c(Br)c(Cl)c2cccnc2c1O` [Compound 114, 6-bromo-5-chloro-7-nitroquinolin-8-ol], the EC50 ([1]; human papillomavirus 11) was greater than 6 µM and the CC50 at 48 h (in vitro) was 30 µM.
For `O=[N+]([O-])c1cc(Cl)c2c(C(F)(F)F)ccnc2c1O` [Compound 73, 5-chloro-7-nitro-4-(trifluoromethyl)-quinolin-8-ol hydrochloride], the EC50 ([1]; human papillomavirus 11) was 0.06 µM, the CC50 at 48 h (in vitro; CC50, C-33 A cells transfected with HPV11 (HE611260.1) plasmids, 48 hours) was 8.5 µM and the CC50 at 48 h (in vitro; CC50, C-33 A cells transfected with HPV16 (KP212151.1) plasmids, 48 hours) was 8.32 µM. The EC50 [3, 5] was 0.07 µM.
In the case of `O=[N+]([O-])c1c(Cl)c(Cl)c2cccnc2c1O` [Compound 115, 5,6-dichloro-7-nitroquinolin-8-ol], the EC50 ([1]; human papillomavirus 11) is reported as greater than 30 µM and the CC50 at 48 h (in vitro; CC50) is reported as 112 µM.
In the case of `Nc1nc2c(ncn2CCOCP(=O)(O)O)c(=O)[nH]1` [Positive control drug, 9-[2-(phosphonylmethoxy)ethyl]guanine, reference compound], the EC90 [1] is reported as 4.47 µM, the EC50 [1] is reported as 1.26 µM and 1.03 µM and the CC50 [4, 6] is reported as greater than 150 µM. For the same molecule, the CC50 [4, 7] was greater than 150 µM, the CC50 [4, 8] was greater than 150 µM and the EC90 [2] was greater than 150 µM. For the same molecule, the EC90 ([3]; HPV16 strain KP212151.1, C-33 A cells) was 2.3 µM.
In the case of `O=[N+]([O-])c1ccc2c(C3CCCCC3)ccnc2c1O` [Compound 32, 4-cyclohexyl-7-nitroquinolin-8-ol], the EC50 ([1]; human papillomavirus 11) is reported as less than 0.05 µM, the EC50 ([2]; human papillomavirus 18) is reported as less than 0.05 µM and the EC50 [3, 5] is reported as 0.08 µM.
For `O=[N+]([O-])c1ccc2c(NC3COC3)ccnc2c1O` [Example 19, 7-nitro-4-(3-oxetanylamino)quinolin-8-ol], the EC50 [1] was 0.52 µM and the CC50 [4, 6] was 4 µM.
`O=[N+]([O-])c1cc(Cl)c2c(Cl)ccnc2c1O` [Compound 29, 4,5-dichloro-7-nitroquinolin-8-ol] showed an EC50 ([1]; human papillomavirus 11) of 2.96 µM and a CC50 at 48 h (in vitro) of 8.74 µM.
With `CN(C)C(=O)N1CCN(c2ccnc3c(O)c([N+](=O)[O-])ccc23)CC1` [Example 25, 4-(8-hydroxy-7-nitroquinolin-4-yl)-N,N-dimethylpiperazine-1-carboxamide] the EC50 [1] was less than 0.05 µM, the CC50 [4, 6] was 3.36 µM and the CC50 [4, 7] was 7.53 µM. It also gave a CC50 [4, 8] of 5.88 µM, an EC50 [2] of 0.1 µM and an EC50 ([3]; HPV16 strain KP212151.1, C-33 A cells, 48 hours, read-out: EC50) of 0.09 µM.
For `CNc1c([N+](=O)[O-])c(O)c2ncccc2c1Cl` [Compound 7, 5-chloro-6-(methylamino)-7-nitroquinolin-8-ol], the EC50 ([1]; human papillomavirus 11) was 5.22 µM and the CC50 at 48 h (in vitro; CC50) was 19.1 µM.
